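Cultured in 96-well plates, cells were exposed to test compound for 48 hours across five concentrations. Abbreviation: GI50, concentration required for 50% inhibition of growth. TGI is the concentration that stops growth completely.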
Columns and labels:
Assay in all cases: NCI tumour cell line growth inhibition, 48 h
[1] = tested on: SNB-75 CNS
[2] = tested on: SK-OV-3 ovarian
[3] = tested on: MDA-MB-231 breast
[4] = tested on: SK-MEL-2 melanoma
[5] = tested on: SK-MEL-5 melanoma
[6] = tested on: SNB-19 CNS
[7] = tested on: HOP-92 NSCLC
[8] = tested on: COLO 205 colon
[9] = tested on: EKVX NSCLC
[10] = tested on: M19-MEL melanoma
[11] = tested on: RPMI-8226 leukemia
[12] = tested on: DLD-1 colon
[13] = tested on: NCI-H23 lung

SMILES | GI50 [1] | TGI [1] | GI50 [2] | TGI [2] | GI50 [3] | TGI [3] | GI50 [4] | TGI [4] | GI50 [5] | TGI [5] | GI50 [6] | TGI [6] | GI50 [7] | TGI [7] | TGI [8] | TGI [9] | TGI [10] | TGI [11] | TGI [12] | TGI [13]
NCCCn1c2c(c3ccc([N+](=O)[O-])cc3c1=O)C(=O)c1cc(F)ccc1-2 | 23 nM | 268 nM | 13.9 nM | 349 nM | 422 nM | 1240 nM | 326 nM | 1050 nM | 60.3 nM | 199 nM | 58.9 nM | 1520 nM | 90.2 nM | 845 nM | – | – | – | – | – | –
CN1C(=O)CN2C(Cl)(Cl)C2(c2ccccc2)c2cc(Cl)ccc21 (centres undefined) | – | – | – | > 100000 nM | – | – | – | > 100000 nM | – | > 100000 nM | – | – | – | 88200 nM | > 100000 nM | > 100000 nM | > 100000 nM | > 100000 nM | > 100000 nM | > 100000 nM

From PubChem BioAssay (NCI)
